Measured values reported in patent US8202834B2, “Fat regulation” (FibroGen, Inc., priority 2002, dated 2012).

Columns and labels:
DEC1/Stra13 [1] = assay: DEC1/Stra13 expression in tissues after 4 days of oral dosing; type: in vivo, mouse; conditions: oral gavage once per day for 4 days, FIG. 3B
Procedure: (§1) To further investigate the effect of the methods and compounds of the present invention on expression of adipogenic factors, twelve Swiss Webster male mice (30-32 g) obtained from Simonsen, Inc. were treated by oral gavage once per day for 4 days with 4 ml/kg volume of either 0.5% CMC (0 mg/kg/day), 25 mg/ml compound D in 0.5% CMC (100 mg/kg/day), or 7.5 mg/ml and 25 mg/ml of compound B in 0.5% CMC (30 and 100 mg/kg/day, respectively). Four hours after the final dose, animals were anesthetized, sacrificed, and approximately 150 mg of adipose, heart, kidney, liver, lung, and muscle were isolated and stored in RNALATER solution (Ambion) at −20° C. RNA isolation and gene expression analysis was performed as described in Example 3 above.

PPAR-γ = PPAR-γ expression in tissue after 4 days of oral dosing; type: in vivo, mouse; conditions: cardiac tissue; oral gavage once per day for 4 days; FIG. 3C
Procedure: as §1

aldolase = assay: Aldolase expression in 293A cells, Western blot; type: cell-based, human
Procedure: In a further analysis of the methods and compounds effect on glucose regulation, human 293A cells were plated confluent in 35 mm culture dishes and cultured for 1 day at 37° C., 10% CO2 in DMEM containing 5% FBS and 1% penicillin-streptomycin. The media was changed to OPTI-MEM media (Invitrogen Life Technologies) and incubation was continued for an additional 18 to 24 hours. Vehicle control or compound B was then added to the media and cells were incubated for an additional 24, 48 or 72 hours. Plates were placed on ice, culture supernatant was removed, and lysis buffer-1 (LB-1: 10 mM Tris pH 7.4, 1 mM EDTA, 150 mM sodium chloride, 0.5% IGEPAL) was added. Cell lysates were harvested, cytosolic fractions were collected, and cytosolic proteins were separated using SDS-PAGE as described above. After separation, the proteins were transferred to a PVDF membrane at 400 mA for 1.5 hours at 4° C. The membrane was incubated in blocking buffer for 2 hours or overnight and washed once with T-TBS prior to addition of anti-aldolase antibody diluted to working concentration in blocking buffer. After overnight incubation with gentle agitation at 4° C., membranes were washed 4 times with T-TBS, followed by incubation for one hour at room temperature with conjugated secondary antibody diluted in blocking buffer. […]

leptin = assay: Leptin secretion by preadipocytes in differentiation media; type: cell-based, human; conditions: 25 or 50 μM, up to 12 days, vs vehicle, FIG. 1B
Procedure: In a separate experiment, preadipocytes were plated in 24 well plates at 45,000 cells per well and cultured for 3 days in preadipocyte media (Zen-Bio). The media was then changed to differentiation media (Zen-Bio) and cells were treated with either vehicle control (0.5% DMSO) or compound B at 25 or 50 μM for up to 12 days. Half of the culture media was exchanged every 3 days and cell-free culture supernatants were generated and analyzed for levels of leptin secretion using a QUANTIKINE immunoassay (R&D Systems) according to the manufacturer's instructions.

HIF-1α = HIF-1α in nuclear fractions, TRANSAM HIF-1 ELISA; type: cell-based, human; conditions: 293A and Hep3B cells, vs vehicle; FIG. 8B
From the text: Compounds of the present invention for use in the present methods stabilize HIFα, inhibit HIF hydroxylase activity and/or HIFα hydroxylation, etc. Thus, compounds can be identified, e.g., by their ability to stabilize HIFα. Stabilization of HIFα using compounds and methods of the present invention was examined as follows. Human cells derived from adenovirus-transformed fetal kidney epithelium (293A), cervical epithelial adenocarcinoma (HeLa), hepatocellular carcinoma (Hep3B), squamous carcinoma (SSC-25), and lung fibroblast (HLF) tissues (see, e.g., American Type Culture Collection, Manassas Va.; and Qbiogene, Carlsbad Calif.) were separately seeded into 100 mm culture dishes and grown at 37° C., 20% O2, 5% CO2 in media as follows: HeLa cells in Dulbecco's Modification of Eagle's Medium (DMEM), 2% fetal bovine serum (FBS); HLF cells in DMEM, 10% FBS; 293A cells in DMEM, 5% FBS; and Hep3B cells in Minimal Essential Medium (MEM), Earle's BSS (Mediatech Inc., Herndon Va.), 2 mM L-glutamine, 0.1 mM non-essential amino acids, 1 mM sodium pyruvate, 10% FBS. When cell layers reached confluence, the media was replaced with OPTI-MEM media (Invitrogen Life Technologies, Carlsbad Calif.) and cell layers were incubated for approximately 24 hours in 20% O2, 5% CO2 at 37° C. A compound of the invention (compound B, D, F, G, or H) or vehicle control (0.5 to 1% DMSO) was then added to existing medium, and incubation was continued overnight.
Alternatively, nuclear fractions were prepared using a nuclear extract kit (Active Motif, Carlsbad Calif.) and were analyzed for HIF-1α using a TRANSAM HIF-1 ELISA kit (Active Motif) according to the manufacturer's instructions.

[2] = test system: PFK-P, PFK-L, enolase-1, GluT-1, lactate dehydrogenase-1, aldolase-1, hexokinase-1; assay: Expression of glucose regulation genes in kidney, liver and lung after oral gavage; type: in vivo; conditions: mouse kidney, liver, lung; 100 mg/kg oral gavage; FIGS. 10A-10C
Procedure: (§2) The ability of the present compounds and methods to regulate fat metabolism, in particular, to increase expression of factors involved in fat transport, utilization, and storage, was analyzed as follows. To determine gene induction patterns over time, twenty four Swiss Webster male mice (30-32 g) were obtained from Simonsen, Inc. and treated by oral gavage with a 4 ml/kg volume of either 0.5% carboxymethyl cellulose (CMC; Sigma-Aldrich, St. Louis Mo.) (0 mg/kg) or […] compound B (25 mg/ml in 0.5% CMC) (100 mg/kg). At 4, 8, 16, 24, 48, or 72 hours after the final dose, animals were anesthetized with isoflurane. The mice were then sacrificed and tissue samples of kidney, liver, brain, lung, and heart were isolated and stored in RNALATER solution (Ambion) at −80° C.
In the time course, most mRNA levels peaked early following administration of compound, then returned to control levels after 24 to 48 hours. […] These differences relate, in part, to the different degree to which glycolytic activity provides a critical source of energy for the respective tissue, especially during times of stress.

DEC1/Stra13 [3] = assay: DEC1/Stra13 expression time course in liver after oral gavage; type: in vivo; conditions: mouse liver, 100 mg/kg oral gavage, 4-72 h; FIG. 3A
Procedure: as §2
To further investigate the effect of the methods and compounds of the present invention on expression of genes associated with fat metabolism and adipogenesis, the experiments performed as described in Example 3 above were analyzed for specific adipogenic factors. […] DEC1/Stra13 is known to repress expression of PPAR-γ2 nuclear hormone receptor, which is necessary for adipocyte differentiation. […]

With `O=C(O)CNC(=O)c1nc(Cl)c2ccccc2c1O` [compound B, [(1-Chloro-4-hydroxy-isoquinoline-3-carbonyl)-amino]-acetic acid] as the molecule, how does the DEC1/Stra13 expression (DEC1/Stra13 [1]; adipose, kidney, liver and muscle, 4 h after final dose) read?
Its DEC1/Stra13 expression is “increased DEC1/Stra13 expression”.

And the DEC1/Stra13 expression (DEC1/Stra13 [1]; lung and heart)?
The DEC1/Stra13 expression was “increased DEC1/Stra13 expression”.

What about the PPAR-γ expression (PPAR-γ) of the same molecule?
The PPAR-γ expression was “decreased PPAR-γ expression”.

And the aldolase expression (aldolase; 293A cells, 24, 48 and 72 hours, FIG. 9B)?
The aldolase expression was “increased over time”.

What about the β-tubulin expression (aldolase; 293A cells, specificity control) of the same molecule?
The β-tubulin expression was “no increases”.

And the leptin secretion (leptin)?
The leptin secretion was “dose-dependent increase in leptin secretion”.

What about the “stabilization and accumulation of HIFα” value (HIF-1α) of the same molecule?
The value was “stabilization and accumulation of HIFα”.

And the “expression of genes encoding enzymes involved in glucose regulation” value [2]?
The value was “increased in a coordinated fashion”.

What about the “expression of DEC1/Stra13” value (DEC1/Stra13 [3]) of the same molecule?
Its value is “initially increased”.
